For the test, the target named is T1, recombinant GST-LRRK2 (wild-type) (Homo sapiens, UniProt Q5S007).
T1 construct: GST (N); purchased Invitrogen
T1 sequence (Q5S007 whole entry): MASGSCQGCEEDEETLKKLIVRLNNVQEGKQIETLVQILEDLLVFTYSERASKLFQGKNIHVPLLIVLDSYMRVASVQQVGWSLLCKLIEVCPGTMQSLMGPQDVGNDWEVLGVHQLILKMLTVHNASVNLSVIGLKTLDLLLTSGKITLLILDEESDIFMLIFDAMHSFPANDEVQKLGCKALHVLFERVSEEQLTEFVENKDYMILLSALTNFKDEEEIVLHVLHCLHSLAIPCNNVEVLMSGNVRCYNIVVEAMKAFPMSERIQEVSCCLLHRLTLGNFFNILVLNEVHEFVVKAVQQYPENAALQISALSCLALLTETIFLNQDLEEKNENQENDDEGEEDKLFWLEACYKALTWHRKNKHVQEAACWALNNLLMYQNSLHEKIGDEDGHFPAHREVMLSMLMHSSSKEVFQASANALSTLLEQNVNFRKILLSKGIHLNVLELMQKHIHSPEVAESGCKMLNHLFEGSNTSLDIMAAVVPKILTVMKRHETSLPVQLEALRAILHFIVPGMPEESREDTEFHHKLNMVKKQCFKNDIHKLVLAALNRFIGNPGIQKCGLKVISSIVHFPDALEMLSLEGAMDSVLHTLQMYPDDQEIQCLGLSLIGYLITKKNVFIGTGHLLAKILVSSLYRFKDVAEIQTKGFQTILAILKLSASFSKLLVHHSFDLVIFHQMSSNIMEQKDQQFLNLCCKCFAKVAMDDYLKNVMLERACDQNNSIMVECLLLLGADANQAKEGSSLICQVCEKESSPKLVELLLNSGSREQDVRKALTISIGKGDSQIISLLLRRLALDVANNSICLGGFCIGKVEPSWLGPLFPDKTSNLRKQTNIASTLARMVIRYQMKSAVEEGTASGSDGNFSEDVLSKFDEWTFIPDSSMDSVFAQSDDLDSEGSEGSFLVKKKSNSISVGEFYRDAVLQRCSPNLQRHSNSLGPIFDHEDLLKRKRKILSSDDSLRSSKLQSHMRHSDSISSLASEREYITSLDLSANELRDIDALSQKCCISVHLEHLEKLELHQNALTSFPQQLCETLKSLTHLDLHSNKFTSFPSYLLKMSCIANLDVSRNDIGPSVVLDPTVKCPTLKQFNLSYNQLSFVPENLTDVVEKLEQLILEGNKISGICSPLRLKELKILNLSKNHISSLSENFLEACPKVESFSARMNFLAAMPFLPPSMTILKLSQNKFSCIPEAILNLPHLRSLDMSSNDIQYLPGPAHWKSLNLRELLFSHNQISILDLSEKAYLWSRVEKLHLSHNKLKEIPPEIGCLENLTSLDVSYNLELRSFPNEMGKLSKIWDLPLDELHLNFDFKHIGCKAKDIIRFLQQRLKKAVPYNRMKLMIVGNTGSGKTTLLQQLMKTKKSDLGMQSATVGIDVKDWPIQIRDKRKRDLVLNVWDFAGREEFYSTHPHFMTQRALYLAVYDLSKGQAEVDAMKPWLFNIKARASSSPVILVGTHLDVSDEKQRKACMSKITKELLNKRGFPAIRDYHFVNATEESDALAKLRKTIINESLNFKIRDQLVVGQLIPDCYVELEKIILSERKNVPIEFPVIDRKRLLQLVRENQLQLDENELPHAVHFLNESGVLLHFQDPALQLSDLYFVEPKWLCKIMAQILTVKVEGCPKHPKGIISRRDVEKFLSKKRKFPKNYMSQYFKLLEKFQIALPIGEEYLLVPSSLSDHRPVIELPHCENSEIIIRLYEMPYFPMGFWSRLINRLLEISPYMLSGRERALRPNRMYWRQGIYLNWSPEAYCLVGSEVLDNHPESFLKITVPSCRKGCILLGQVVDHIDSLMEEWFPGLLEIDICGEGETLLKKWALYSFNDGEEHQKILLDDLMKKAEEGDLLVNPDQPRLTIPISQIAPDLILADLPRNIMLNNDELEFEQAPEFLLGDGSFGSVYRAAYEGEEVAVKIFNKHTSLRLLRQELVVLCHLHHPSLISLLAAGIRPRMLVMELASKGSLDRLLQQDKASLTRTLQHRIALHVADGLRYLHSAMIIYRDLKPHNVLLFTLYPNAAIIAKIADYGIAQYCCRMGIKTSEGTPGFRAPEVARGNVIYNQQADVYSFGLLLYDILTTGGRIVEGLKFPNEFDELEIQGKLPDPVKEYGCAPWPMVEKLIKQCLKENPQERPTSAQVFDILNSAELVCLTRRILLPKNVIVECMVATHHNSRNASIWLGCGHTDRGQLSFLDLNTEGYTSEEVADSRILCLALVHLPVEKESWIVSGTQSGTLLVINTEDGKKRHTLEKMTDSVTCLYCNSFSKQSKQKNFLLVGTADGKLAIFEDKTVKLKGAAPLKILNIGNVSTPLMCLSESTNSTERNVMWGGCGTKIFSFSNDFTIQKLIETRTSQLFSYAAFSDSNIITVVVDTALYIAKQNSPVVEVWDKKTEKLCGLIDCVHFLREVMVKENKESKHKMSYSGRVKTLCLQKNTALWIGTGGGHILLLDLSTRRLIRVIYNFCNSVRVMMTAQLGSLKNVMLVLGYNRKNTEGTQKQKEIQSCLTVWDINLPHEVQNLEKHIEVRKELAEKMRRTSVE
Kind of test: LRRK2 TR-FRET peptide assay (wild-type). The class given is biochemical. The following applies: 100 μM ATP, 100 nM biotin-LRRKtide, 10 nM kinase, 60 min room temperature. On the procedure:
Compounds as described herein (compounds of Formula I, e.g., compounds of the above Examples) are tested for their in vitro kinase activities using various LRRK2 (including LRRK2 G2019S mutant) assays. For example, assays were performed in a total volume of 20 μL using the same kinase reaction buffer (50 mM HEPES pH 7.5, 10 mM MgCl2, 1 mM EGTA, 2 mM DTT and 0.01% Tween-20) for wild-type or G2019S mutant LRRK2. Serially diluted compounds (1% DMSO as co-solvent) were pre-incubated with recombinant GST-LRRK2 (wild-type, or G2019S mutant, Invitrogen) for 15 minutes at room temperature in 384-well Corning black plates. Mixtures of ATP and biotin-LRRKtide substrate (biotin-RLGRDKYKTLRQIRQ) were added to the wells at a final concentration of 100 μM ATP and 100 nM substrate, with final kinase concentration of 10 nM. The kinase reactions were carried out at room temperature for 60 minutes, then the reaction was stopped with the addition of 10 μL/well of stop/detection buffer (25 mM HEPES pH 7.5, 66 mM EDTA, 0.8 M KF and 0.1% BSA) that contains streptavidin-XL665 (12.5 nM) and europium-conjugated phospho-specific antibody (2 nM). The plates were read 1 hour later and the time-resolved fluorescence (665 nm to 615 nm ratio) measured using an Envision reader. The inhibition of each well was calculated using the control and background readings for that plate. IC50 values were determined from dose-response curves using eight concentrations from the serial dilution of the test compounds.
On the technique in general: In TR-FRET formats the signal depends on donor and acceptor labels being close together.
By IC50 is commonly meant the concentration at which inhibition is half-maximal. For `O=C(NN=C1SCC(=O)N1c1ccccc1)c1ccc(Cl)s1` [Compound 1-6, 5-chloro-N′-(4-oxo-3-phenylthiazolidin-2-ylidene)thiophene-2-carbohydrazide], the half-maximal inhibitory concentration (IC50) came to 0.0009 µM.
With `CC1SC(=NNC(=O)c2ccc(Cl)s2)N(c2ccccc2)C1=O` (stereo not drawn) [Compound 1-7, 5-chloro-N′-(5-methyl-4-oxo-3-phenylthiazolidin-2-ylidene)thiophene-2-carbohydrazide], the IC50 was 0.011 µM.
Regarding `O=C(NN=C1SCC(=O)N1c1cccc(F)c1)c1ccc(Cl)s1` [Compound 1-8, 5-chloro-N′-(3-(3-fluorophenyl)-4-oxothiazolidin-2-ylidene)thiophene-2-carbohydrazide], the half-inhibitory concentration (IC50) worked out at 0.0011 µM.
The same measure for `COc1ccccc1N1C(=O)CSC1=NNC(=O)c1ccc(Cl)s1` [Compound 1-9, 5-chloro-N′-(3-(2-methoxyphenyl)-4-oxothiazolidin-2-ylidene)thiophene-2-carbohydrazide]: 1.17 µM; for `O=C(NN=C1SCC(=O)N1c1ccccc1F)c1ccc(Cl)s1` [Compound 1-10, 5-chloro-N′-(3-(2-fluorophenyl)-4-oxothiazolidin-2-ylidene)thiophene-2-carbohydrazide]: 0.0005 µM.
For `O=C(NN=C1SCC(=O)N1c1ccc(F)cc1)c1ccc(Cl)s1` [Compound 1-11, 5-chloro-N′-(3-(4-fluorophenyl)-4-oxothiazolidin-2-ylidene)thiophene-2-carbohydrazide], the IC50 came to 0.0009 µM.
The same measure for `O=C(NN=C1SCC(=O)N1c1ccc(F)cc1F)c1ccc(Cl)s1` [Compound 1-12, 5-chloro-N′-(3-(2,4-difluorophenyl)-4-oxothiazolidin-2-ylidene)thiophene-2-carbohydrazide]: 0.0005 µM; for `CC(C)C1SC(=NNC(=O)c2ccc(Cl)s2)N(c2ccccc2)C1=O` (stereo not drawn) [Compound 1-13, 5-chloro-N′-(5-isopropyl-4-oxo-3-phenylthiazolidin-2-ylidene)thiophene-2-carbohydrazide]: 0.21 µM; for `CC1(C)SC(=NNC(=O)c2ccc(Cl)s2)N(c2ccccc2)C1=O` [Compound 1-14, 5-chloro-N′-(5,5-dimethyl-4-oxo-3-phenylthiazolidin-2-ylidene)thiophene-2-carbohydrazide]: 0.33 µM.
The same measure for `O=C(NN=C1SCC(=O)N1Cc1ccccc1)c1ccc(Cl)s1` [Compound 1-15, N′-(3-benzyl-4-oxothiazolidin-2-ylidene)-5-chlorothiophene-2-carbohydrazide]: 0.013 µM.
For `O=C(NN=C1SCC(=O)N1c1cccc(C(F)(F)F)c1)c1ccc(Cl)s1` [Compound 1-16, 5-chloro-N′-(4-oxo-3-(3-(trifluoromethyl)phenyl)thiazolidin-2-ylidene)thiophene-2-carbohydrazide], the IC50 is 0.111 µM.
In the case of `O=C(NN=C1SCCN1c1ccccc1)c1ccc(Cl)s1` [Compound 2-19, 5-chloro-N′-(3-phenylthiazolidin-2-ylidene)thiophene-2-carbohydrazide], the IC50 was determined as 0.051 µM.

For the origin of these results see patent US20160024071A1, “INHIBITORS OF LRRK2 KINASE ACTIVITY” (ELAN PHARMACEUTICALS, LLC., priority 2013, published 2016).
